# Laboratory results from US8993604B2, “Treatment and prevention of dengue virus infections” (Siga Technologies, Inc., priority 2009, dated 2015).
# Like-named read-outs stand apart in the source and are kept apart here.
# System: Dengue-2 (Strain New Guinea C)
# Assay: Viral yield assay in Vero cells
# Assay type: cell-based
# Conditions: Dengue virus, read-out: Activity (anti-dengue 2 viral activity, EC50 class)
# Procedure: Compounds that were active in the primary screen were tested for activity in viral yield assays. […] Vero cells in 12-well plates were infected with dengue-2 virus at a multiplicity of infection (MOI) of 0.1, treated with compound (or DMSO as a control), incubated at 37° C., harvested 48 hours post infection and titered on Vero cells as described above. The EC50 was calculated through ExcelFit. Activities against other serotypes of dengue virus were determined in a similar way.
# [1] = Vero cells, MOI 0.1, harvested 48 hours post infection
SMILES,EC50 [1] [µM],"EC50 (Vero, 48 h) [µM]"
"COc1ccc(C(=O)Nc2ccc(-c3nc4ccccc4s3)c(O)c2)cc1 [Compound 1, N-(4-Benzothiazol-2-yl-3-hydroxy-phenyl)-4-methoxy-benzamide]",< 1,
"O=C(Nc1ccc(-c2nc3ccccc3s2)cc1)c1ccc2c(c1)OCCO2 [Compound 2, 2,3-Dihydro-benzo[1,4]dioxine-6-carboxylic acid (4-benzothiazol-2-yl-phenyl)-amide]",< 1,
"COc1ccccc1C(=O)Nc1cccc(-c2nc3ccccc3s2)c1 [Compound 4, N-(3-Benzothiazol-2-yl-phenyl)-2-methoxy-benzamide]",< 1,
"COc1ccc(C(=O)Nc2ccc(-c3nc4ccccc4s3)c(Cl)c2)cc1OC [Compound 5, N-(4-Benzothiazol-2-yl-3-chloro-phenyl)-3,4-dimethoxy-benzamide]",< 1,
"COc1ccc(C(=O)Nc2ccc(-c3nc4ccccc4s3)c(Cl)c2)cc1 [Compound 6, N-(4-Benzothiazol-2-yl-3-chloro-phenyl)-4-methoxy-benzamide]",< 1,
"Cc1ccc2nc(-c3ccc(NC(=O)c4ccc(N(C)C)cc4)cc3)sc2c1 [Compound 7, 4-Dimethylamino-N-[4-(6-methyl-benzothiazol-2-yl)-phenyl]-benzamide]",< 1,
"Cc1ccc(C(=O)O)c(C(=O)Nc2ccc(-c3nc4ccc(C)cc4s3)cc2)c1 [Compound 8, 4-Methyl-N-[4-(6-methyl-benzothiazol-2-yl)-phenyl]-phthalamic acid]",< 1,
"Cc1ccc2nc(-c3ccc(NC(=O)c4cccc(S(=O)(=O)N5CCN(C)CC5)c4)cc3)sc2c1 [Compound 9, N-[4-(6-Methyl-benzothiazol-2-yl)-phenyl]-3-(4-methyl-piperazine-1-sulfonyl)-benzamide]",< 1,
"CN(C)c1ccccc1C(=O)Nc1ccc(-c2nc3ccccc3s2)cc1 [Compound 10, N-(4-Benzothiazol-2-yl-phenyl)-2-dimethylamino-benzamide]",< 1,
"COc1ccccc1C(=O)Nc1ccc(-c2nc3ccccc3s2)c(Cl)c1 [Compound 11, N-(4-Benzothiazol-2-yl-3-chloro-phenyl)-2-methoxy-benzamide]",< 1,
"Cc1cccc(C(=O)Nc2cccc(-c3nc4ccccc4s3)c2)c1 [Compound 12, N-(3-Benzothiazol-2-yl-phenyl)-3-methyl-benzamide]",1 to 10,
"COc1cccc(OC)c1C(=O)Nc1cccc(-c2nc3ccccc3s2)c1 [Compound 13, N-(3-Benzothiazol-2-yl-phenyl)-2,6-dimethoxy-benzamide]",1 to 10,
"COc1ccc(C(=O)Nc2ccccc2-c2nc3ccccc3s2)cc1OC [Compound 14, N-(2-Benzothiazol-2-yl-phenyl)-3,4-dimethoxy-benzamide]",1 to 10,
"COc1ccc(-c2nc3ccccc3s2)cc1NC(=O)c1ccc([N+](=O)[O-])cc1Cl [Compound 15, N-(5-Benzothiazol-2-yl-2-methoxy-phenyl)-2-chloro-4-nitro-benzamide]",1 to 10,
"COc1c(C)cccc1C(=O)Nc1ccccc1-c1nc2ccccc2s1 [Compound 16, N-(2-Benzothiazol-2-yl-phenyl)-2-methoxy-3-methyl-benzamide]",1 to 10,
"O=C(Nc1ccc(-c2nc3ccccc3s2)cc1)c1ccc(S(=O)(=O)N2CCCCC2)cc1 [Compound 17, N-(4-Benzothiazol-2-yl-phenyl)-4-(piperidine-1-sulfonyl)-benzamide]",,10 to 25
"O=C(Nc1cccc(-c2nc3ccccc3s2)c1)c1ccc(S(=O)(=O)N2CCCC2)cc1 [Compound 20, N-(3-Benzothiazol-2-yl-phenyl)-4-(pyrrolidine-1-sulfonyl)-benzamide]",10 to 25,
"O=C(Nc1ccc(-c2nc3ccccc3s2)cc1)c1ccccc1F [Compound 21, N-(4-Benzothiazol-2-yl-phenyl)-2-fluoro-benzamide]",10 to 25,
"O=C(Nc1ccc(-c2nc3ccccc3s2)c(O)c1)c1ccc(F)cc1 [Compound 22, N-(4-Benzothiazol-2-yl-3-hydroxy-phenyl)-4-fluoro-benzamide]",10 to 25,
"Cc1ccccc1C(=O)Nc1ccc(-c2nc3ccccc3s2)c(O)c1 [Compound 23, N-(4-Benzothiazol-2-yl-3-hydroxy-phenyl)-2-methyl-benzamide]",10 to 25,
"O=C(Nc1ccc(-c2nc3ccccc3s2)c(O)c1)c1cccc(F)c1 [Compound 24, N-(4-Benzothiazol-2-yl-3-hydroxy-phenyl)-3-fluoro-benzamide]",10 to 25,
"CCOc1ccc(C(=O)Nc2cccc(-c3nc4ccccc4s3)c2C)cc1[N+](=O)O [Compound 25, N-(3-Benzothiazol-2-yl-2-methyl-phenyl)-4-ethoxy-3-nitro-benzamide]",10 to 25,
"Cc1ccccc1C(=O)Nc1ccc(-c2nc3ccccc3s2)cc1 [Compound 26, N-(4-Benzothiazol-2-yl-phenyl)-2-methyl-benzamide]",10 to 25,

SMILES,EC50 [1] [µM],"EC50 (Vero, 48 h) [µM]"
"COc1ccc(C(=O)Nc2ccc(-c3nc4ccccc4s3)c(O)c2)cc1OC [Compound 27, N-(4-Benzothiazol-2-yl-3-hydroxy-phenyl)-3,4-dimethoxy-benzamide]",10 to 25,
"COc1ccc(Br)cc1C(=O)Nc1ccc(-c2nc3ccccc3s2)cc1 [Compound 28, N-(4-Benzothiazol-2-yl-phenyl)-5-bromo-2-methoxy-benzamide]",10 to 25,
"Cc1ccc2nc(-c3ccc(NC(=O)c4ccc(CN5CCOCC5)cc4)cc3)sc2c1 [Compound 29, N-[4-(6-Methyl-benzothiazol-2-yl)-phenyl]-4-morpholin-4-ylmethyl-benzamide]",10 to 25,
"CC(=O)Oc1cccc(C(=O)Nc2ccc(-c3nc4ccccc4s3)cc2)c1 [Compound 30, Acetic acid 3-(4-benzothiazol-2-yl-phenylcarbamoyl)-phenyl ester]",10 to 25,
"COc1ccc(Cl)cc1C(=O)Nc1ccc(-c2nc3ccccc3s2)cc1 [Compound 31, N-(4-Benzothiazol-2-yl-phenyl)-5-chloro-2-methoxy-benzamide]",10 to 25,
"COc1ccc(C(=O)Nc2ccc(Cl)c(-c3nc4ccccc4s3)c2)cc1OC [Compound 32, N-(3-Benzothiazol-2-yl-4-chloro-phenyl)-3,4-dimethoxy-benzamide]",10 to 25,
"Cc1ccc(C(=O)Nc2cccc(-c3nc4ccccc4s3)c2)c(Cl)c1 [Compound 33, N-(3-Benzothiazol-2-yl-phenyl)-2-chloro-4-methyl-benzamide]",10 to 25,
"O=C(Nc1ccccc1-c1nc2ccccc2s1)c1ccccc1[N+](=O)[O-] [Compound 34, N-(2-Benzothiazol-2-yl-phenyl)-2-nitro-benzamide]",10 to 25,
"O=C(Nc1ccc(-c2nc3ccccc3s2)cc1)c1c(F)c(F)c(F)c(F)c1F [Compound 36, N-(4-Benzothiazol-2-yl-phenyl)-2,3,4,5,6-pentafluoro-benzamide]",10 to 25,
"CCCC(=O)Nc1ccc(C(=O)Nc2ccc(-c3nc4ccc(C)cc4s3)cc2)cc1 [Compound 37, 4-Butyrylamino-N-[4-(6-methyl-benzothiazol-2-yl)-phenyl]-benzamide]",10 to 25,
"Cc1cc(C)cc(C(=O)Nc2ccc(-c3nc4ccccc4s3)cc2C)c1 [Compound 38, N-(4-Benzothiazol-2-yl-2-methyl-phenyl)-3,5-dimethyl-benzamide]",10 to 25,
"Cc1cccc(C(=O)Nc2ccc(-c3nc4ccccc4s3)c(Cl)c2)c1 [Compound 39, N-(4-Benzothiazol-2-yl-3-chloro-phenyl)-3-methyl-benzamide]",10 to 25,
"Cc1ccc2nc(-c3ccc(NC(=O)c4ccc(S(=O)(=O)N5CCc6ccccc65)cc4)cc3)sc2c1 [Compound 41, 4-(2,3-Dihydro-indole-1-sulfonyl)-N-[4-(6-methyl-benzothiazol-2-yl)-phenyl]-benzamide]",> 25,
"Cc1ccc2sc(-c3ccc(NC(=O)c4ccc(Cl)cc4)cc3)nc2c1 [Compound 42, 4-Chloro-N-[4-(5-methyl-benzothiazol-2-yl)-phenyl]-benzamide]",> 25,
"Cc1ccc(-c2nc3ccccc3s2)cc1NC(=O)c1cccc(I)c1 [Compound 43, N-(5-Benzothiazol-2-yl-2-methyl-phenyl)-3-iodo-benzamide]",> 25,
"O=C(Nc1ccc(-c2nc3ccccc3s2)cc1)c1cc(I)ccc1I [Compound 44, N-(4-Benzothiazol-2-yl-phenyl)-2,5-diiodo-benzamide]",> 25,
"O=C(Nc1cccc(-c2nc3ccccc3s2)c1)c1cc(I)ccc1I [Compound 45, N-(3-Benzothiazol-2-yl-phenyl)-2,5-diiodo-benzamide]",> 25,
"CCOC(=O)N1CCN(S(=O)(=O)c2ccc(C(=O)Nc3cccc(-c4nc5ccccc5s4)c3)cc2)CC1 [Compound 46, 4-[4-(3-Benzothiazol-2-yl-phenylcarbamoyl)-benzenesulfonyl]-piperazine-1-carboxylic acid ethyl ester]",> 25,
"CCOC(=O)N1CCN(S(=O)(=O)c2ccc(C(=O)Nc3ccccc3-c3nc4ccccc4s3)cc2)CC1 [Compound 47, 4-[4-(2-Benzothiazol-2-yl-phenylcarbamoyl)-benzenesulfonyl]-piperazine-1-carboxylic acid ethyl ester]",> 25,
"COc1cc(C(=O)Nc2ccc(-c3nc4ccccc4s3)cc2)cc(OC)c1OC [Compound 48, N-(4-Benzothiazol-2-yl-phenyl)-3,4,5-trimethoxy-benzamide]",> 25,
"Cc1ccc2sc(-c3ccc(NC(=O)c4ccccc4Cl)cc3)nc2c1 [Compound 49, 2-Chloro-N-[4-(5-methyl-benzothiazol-2-yl)-phenyl]-benzamide]",,> 25
"Cc1ccc(-c2nc3ccccc3s2)cc1NC(=O)c1ccc(F)cc1 [Compound 50, N-(5-Benzothiazol-2-yl-2-methyl-phenyl)-4-fluoro-benzamide]",> 25,
"COc1cc(C(=O)Nc2cc(-c3nc4ccccc4s3)ccc2C)cc(OC)c1OC [Compound 51, N-(5-Benzothiazol-2-yl-2-methyl-phenyl)-3,4,5-trimethoxy-benzamide]",> 25,
